Measured values taken from patent US10156566B2, “Detoxification of microbial virulence factors in oral cavity” (priority 2015, dated 2018).
Where “and” joins values, the source holds several entries; their conditions need not be identical. Equal entries are not always repeated. Where two headings read alike, the source gives them in different places.

Key:
[1] = tested on: E. coli LPS; assay: Displacement of LPS from binding to BODIPY TR cadaverine (Tables 3, 9, 12, 13); settings: E. coli LPS 15 μg/ml
[2] = tested on: P. gingivalis LPS 1690; type: biochemical
Procedure: (§1) The Limulus Amebocyte Lysate Assay (LAL) is an assay to determine the total amount of lipopolysaccharide (LPS) in the sample tested (Pierce LAL Chromogenic Endotoxin Quantitation Kit, ThermoFischer Scientific, Waltham, Mass.). The assay was performed following manufacturer's instruction. Ninety-six-well microplates were first equilibrated in a heating block for 10 min at 37° C. Fifty μl each of standard or sample was dispensed into the microplate wells and incubated with the plate covered for 5 min at 37° C. Then 50 μl LAL was added to each well.
(§2) Plates were shaken gently and incubated for 10 min at 37° C. 100 μl of chromogenic substrate was added and incubated for 6 min at 37° C.
(§3) The Thermo Scientific Pierce LAL Chromogenic Endotoxin Quantitation Kit is a quantitative endpoint assay for the detection of LPS, which catalyzes the activation of a proenzyme in the modified Limulus Amebocyte Lysate (LAL). The activated proenzyme then splits p-Nitroaniline (pNA) from the colorless substrate, Ac-Ile-Glu-Ala-Arg-pNA. […] Then 50 μl LAL was added to each well. Plates were shaken gently and incubated for 10 min at 37° C. 100 μl of chromogenic substrate was added and incubated for 6 min at 37° C.

[3] = tested on: E. coli LPS; type: biochemical
Procedure: as §1, §2, §3

[4] = tested on: THP-1 cells; assay: LPS stimulated cytokine production in THP-1 cells with citrulline; type: cell-based, human; settings: 0.3 mM to 9 mM; 300 ng/ml LPS; 24 hours
Procedure: Citrulline was purchased from Sigma-Aldrich (St. Louis, Mo.). THP1-Dual™ cells were purchased from Invivogen (San Diego, Calif.). Cells were cultured following the manufacturer's instruction, as described in EXAMPLE 11. For treatment, 0.3 mM to 9 mM of citrulline were first added to the culture medium. […] After 24 hours of treatment, media was collected and analyzed for cytokine production using 9-plex kit (Meso Scale Diagnostics Rockville, Md.).

[5] = tested on: Lipopolysaccharide
[6] = tested on: E. coli LPS
Procedure: 0.7 ul of the sample solution was spotted on a MALDI plate, air-dried, and analyzed in negative ion mode using a MALDI-TOF/TOF 4800 plus system (AB-Sciex, Framingham, Mass., USA). Typical data acquisition uses mass scan range 500-3000 Da and a laser power of 4500. Data was collected in an automated fashion using random sampling over the sample spot with 250 shots per subspectrum and a total of 2500 shots per spectrum.

[7] = molecular target: T1, TLR4 (Homo sapiens, UniProt O00206+Q9Y6Y9); type: cell-based; parameters: host or cells: human HEK 293T cells; settings: for reduction of P. gingivalis LPS activation on the TLR4 reporter system: P. gingivalis LPS 500 ng/ml
Target sequence in this assay (O00206 24-839): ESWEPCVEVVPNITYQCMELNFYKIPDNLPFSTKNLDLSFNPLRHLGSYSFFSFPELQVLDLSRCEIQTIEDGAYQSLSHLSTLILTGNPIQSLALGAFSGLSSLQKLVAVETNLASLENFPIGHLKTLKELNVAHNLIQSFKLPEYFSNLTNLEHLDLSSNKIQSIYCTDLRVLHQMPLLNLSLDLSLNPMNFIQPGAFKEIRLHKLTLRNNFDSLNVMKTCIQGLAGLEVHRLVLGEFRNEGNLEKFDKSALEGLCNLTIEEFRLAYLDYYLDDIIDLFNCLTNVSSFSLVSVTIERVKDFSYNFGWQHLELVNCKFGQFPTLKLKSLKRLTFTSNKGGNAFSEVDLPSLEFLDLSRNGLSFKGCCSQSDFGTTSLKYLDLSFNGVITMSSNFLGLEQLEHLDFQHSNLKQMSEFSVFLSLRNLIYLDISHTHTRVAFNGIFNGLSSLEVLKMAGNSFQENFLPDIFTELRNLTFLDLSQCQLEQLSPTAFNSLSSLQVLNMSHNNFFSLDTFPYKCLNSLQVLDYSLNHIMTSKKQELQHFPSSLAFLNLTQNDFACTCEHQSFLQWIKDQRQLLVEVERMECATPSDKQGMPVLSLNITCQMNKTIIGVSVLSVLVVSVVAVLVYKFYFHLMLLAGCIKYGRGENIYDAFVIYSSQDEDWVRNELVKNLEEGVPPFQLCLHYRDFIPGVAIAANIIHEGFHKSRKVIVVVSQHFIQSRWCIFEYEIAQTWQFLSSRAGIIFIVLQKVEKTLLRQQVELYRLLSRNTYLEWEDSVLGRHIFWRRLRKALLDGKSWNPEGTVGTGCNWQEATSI
Target sequence in this assay (Q9Y6Y9 17-160 limits assumed): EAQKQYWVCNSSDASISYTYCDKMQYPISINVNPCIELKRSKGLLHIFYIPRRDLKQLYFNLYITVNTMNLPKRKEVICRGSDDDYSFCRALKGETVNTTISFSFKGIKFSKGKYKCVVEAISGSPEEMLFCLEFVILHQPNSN
Excerpt: The cell line is named here as TLR4-SEAP. The reporter gene encodes a secreted enzyme, called embryonic alkaline phosphatase or SEAP. The SEAP reporter is placed under the control of an IL-12 p40 minimal promoter fused to five NF-κB and AP-1-binding sites. Furthermore, the TLR4-SEAP cell line also contains a CD14 co-receptor gene, which is needed to transfer LPS to TLR4 receptors. The recombinant TLR binds its ligand, or distinct pathogen-associated molecule, initiates a chain of responses, leading to recruitment of NFkB and API transcription factors to the reporter gene promoter, which induce expression of SEAP.
For treatment, wells of a 96-well plate were seeded with 10,000 cells/well in 100 μL of growth medium. […] On day 4, medium was changed to assay medium (90 μl), which is the DMEM medium without fetal calf serum. […] 10 μl of the bacteria, LPS and culture medium of bacterial growth were added to the TLR4-SEAP cells. Samples were taken 24 hours later, following addition of LPS, bacteria, and culture medium. Expression of the reporter gene (SEAP) was quantified with a commercially available kit (SEAP Reporter Gene Assay of Cayman Chemical Co., Ann Arbor, Mich.).
EC50 was calculated using GraphPad Prism software (GraphPad Software, La Jolla, Calif.).
Tests were conducted to understand whether stannous fluoride could reduce LPS's ability to trigger proinflammatory responses in host cells.

[8] = tested on: NFkB-SEAP reporter gene; assay: THP1-Dual reporter cells, NFkB-SEAP; type: cell-based, human; settings: dose dependent
Excerpt: (§4) THP1 NFkB-SEAP and IRF-Lucia™ Reporter Monocytes were purchased from Invivogen, San Diego, Calif. THP1-Dual cells were derived from the human THP-1 monocyte cell line by stable integration of two inducible reporter constructs. THP1-Dual cells feature the Lucia gene under the control of an ISG54 (interferon-stimulated gene) minimal promoter in conjunction with five interferon-stimulated response elements. THP1-Dual cells also express a SEAP reporter gene driven by an IFN-b minimal promoter fused to five copies of the NF-kB consensus transcriptional response element and three copies of the c-Rel binding site. As a result, THP1-Dual cells allow the simultaneous study of the NFkB pathway, by monitoring the activity of SEAP, and the interferon regulatory factor (IRF) pathway, by assessing the activity of Lucia (IRF-Luc). Both reporter proteins are readily measurable in the cell culture supernatant.
(§5) Cells were passed every 3 to 4 days by inoculating 300,000-500,000 cells/ml into a fresh T75 flask with 15 ml of fresh growth medium. […] After incubation for 18 hours at 37° C. and 5% CO2, secreted luciferase and SEAP were quantified with commercially available assay kits (QUANTI-Luc of Invivogen, San Diego, Calif. for luciferase; SEAP Reporter Gene Assay of Cayman Chemical Co., Ann Arbor, Mich. for SEAP).

[9] = molecular target: T2, TLR2 (Homo sapiens, UniProt O60603); type: cell-based; settings: stannous 1000 uM; P. gingivalis LPS
T2 construct: host or cells: human HEK 293T cells
T2 sequence (O60603 21-784): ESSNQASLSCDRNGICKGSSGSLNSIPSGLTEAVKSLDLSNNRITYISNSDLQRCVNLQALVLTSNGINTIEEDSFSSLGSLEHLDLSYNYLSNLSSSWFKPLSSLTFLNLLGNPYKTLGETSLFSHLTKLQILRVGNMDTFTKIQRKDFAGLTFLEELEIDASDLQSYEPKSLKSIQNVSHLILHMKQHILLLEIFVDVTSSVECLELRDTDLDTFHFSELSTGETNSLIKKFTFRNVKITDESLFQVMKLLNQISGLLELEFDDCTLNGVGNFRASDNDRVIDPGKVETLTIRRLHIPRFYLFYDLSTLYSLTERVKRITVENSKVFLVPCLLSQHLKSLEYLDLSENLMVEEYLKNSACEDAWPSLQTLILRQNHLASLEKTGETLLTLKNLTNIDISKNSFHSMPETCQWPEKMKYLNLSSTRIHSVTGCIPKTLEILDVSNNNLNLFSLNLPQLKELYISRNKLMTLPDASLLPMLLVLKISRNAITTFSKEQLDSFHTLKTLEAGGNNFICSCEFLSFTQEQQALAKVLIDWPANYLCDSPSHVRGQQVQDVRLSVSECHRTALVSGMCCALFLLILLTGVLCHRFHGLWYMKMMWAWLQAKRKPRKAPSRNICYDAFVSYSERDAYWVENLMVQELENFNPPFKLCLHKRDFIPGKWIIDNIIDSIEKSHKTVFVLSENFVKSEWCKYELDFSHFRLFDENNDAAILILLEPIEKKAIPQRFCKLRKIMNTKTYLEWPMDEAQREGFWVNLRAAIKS
Excerpt: The cell line is named here as TLR2-SEAP. The reporter gene encodes a secreted enzyme, called embryonic alkaline phosphatase or SEAP. The SEAP reporter is placed under the control of the interferon-β minimal promoter fused to five NFkB and AP-1-binding sites. Furthermore, a CD14 co-receptor gene was transfected into the reporter gene cells expressing TLR2, as CD14 has been identified as a co-receptor for TLR2 ligands to enhance the TLR response. The CD14 co-receptor is needed to transfer LTA to TLR2 receptors. The recombinant TLR2 binds its ligand, or distinct pathogen-associated molecule, initiates a chain of responses, leading to recruitment of NFkB and API transcription factors to the reporter gene promoter, which induce expression of SEAP.
For treatment with LTA, wells of a 96-well plate were seeded with 10,000 cells/well in 100 μL of growth medium. […] On day 4, medium (100 μL) was changed to DMEM medium without fetal calf serum. […] Samples were taken 24 hours later, following addition of samples. Expression of the reporter gene (SEAP) was quantified with a commercially available kit (SEAP Reporter Gene Assay of Cayman Chemical Co., Ann Arbor, Mich.).

[10] = tested on: IRF-luciferase reporter gene; assay: THP1-Dual reporter cells, IRF-Lucia luciferase; type: cell-based, human
Excerpt: as §4, §5

[11] = molecular target: T1, TLR4; assay: cell-based; type: cell-based; parameters: host or cells: HEK-Blue-hTLR4 (HEK 293T); settings: for Average fluorescence intensity (FI): Control 1027
Target sequence in this assay (O00206 24-839): as the sequence (O00206 24-839) above
Target sequence in this assay (Q9Y6Y9 17-160): as the sequence (Q9Y6Y9 17-160 limits assumed) above
Procedure: Stannous fluoride, Cetylpyridium chloride (CPC) and Triclosan were purchased from Sigma-Aldrich, St. Louis, Mo. […] The growth medium: DMEM, with 4.5 g/l glucose, supplemented 10% fetal bovine serum, 50 U/ml penicillin and streptomycin, 100 μg/ml Normocin, and 2 mM L-glutamine, purchased from Thermo Fisher, Waltham, Mass.

[12] = tested on: human primary monocytes; assay: LPS-stimulated cytokine production in human primary monocytes; type: cell-based
Procedure: The primary human monocytes were purchased from Astarte Biologics (Bothell, Wash.). […] The medium was harvested at 24 hours after adding LPS and SnF2, and analyzed for proinflammatory cytokines in a kit following manufacturer's instruction (Meso Scale Diagnostics, Rockville, Md.).

[13] = molecular target: T3, TLR5 (Homo sapiens, UniProt O60602); assay: TLR5-NFkB-SEAP reporter gene assay in HEK 293T cells; type: cell-based
T3 construct: host or cells: human HEK 293T cells
T3 sequence (O60602 21-858): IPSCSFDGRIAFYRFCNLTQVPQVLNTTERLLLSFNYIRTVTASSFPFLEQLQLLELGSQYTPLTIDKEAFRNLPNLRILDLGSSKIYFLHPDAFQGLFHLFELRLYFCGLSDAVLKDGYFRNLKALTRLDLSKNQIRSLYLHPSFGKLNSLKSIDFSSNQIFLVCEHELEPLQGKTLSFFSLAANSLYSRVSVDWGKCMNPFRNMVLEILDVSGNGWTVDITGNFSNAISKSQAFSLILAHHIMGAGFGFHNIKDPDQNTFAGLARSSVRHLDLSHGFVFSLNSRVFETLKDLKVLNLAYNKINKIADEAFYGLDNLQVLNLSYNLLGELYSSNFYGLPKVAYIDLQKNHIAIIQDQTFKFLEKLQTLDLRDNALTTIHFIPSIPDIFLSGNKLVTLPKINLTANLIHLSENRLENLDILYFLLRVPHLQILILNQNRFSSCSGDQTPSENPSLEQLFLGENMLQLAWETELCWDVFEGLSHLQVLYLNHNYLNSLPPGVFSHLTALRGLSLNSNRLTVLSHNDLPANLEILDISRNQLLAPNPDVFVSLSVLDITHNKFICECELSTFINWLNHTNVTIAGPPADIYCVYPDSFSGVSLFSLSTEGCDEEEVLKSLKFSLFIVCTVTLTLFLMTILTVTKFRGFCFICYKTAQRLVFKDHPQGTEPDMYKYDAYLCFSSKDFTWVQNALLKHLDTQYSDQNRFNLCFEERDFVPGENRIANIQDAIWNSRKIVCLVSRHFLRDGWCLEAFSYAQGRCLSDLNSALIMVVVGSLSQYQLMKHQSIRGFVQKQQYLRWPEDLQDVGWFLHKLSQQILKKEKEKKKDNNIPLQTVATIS
Procedure: The cell line was named as TLR5-NFkB-SEAP.
S. subtilis and S. aureus flagellin were added at a range of concentration from 0.97 ng to 1 μg/ml. […]

Compound	LPS displacement % Mean [1]	LPS displacement % Reading 1 [1]	LPS displacement % Reading 3 [1]	LPS displacement % Reading 2 [1]	inhibition [5]	further results
1,3-Diphenylacetone (1,3 diphenyl-2-propanone)	11%	16%	5%			
CC(O)C(=O)[O-].CC(O)C(=O)[O-].[Zn+2] (racemic) [dl-lactic acid hemizinc salt]	19%	15%	24%			
[O-]n1ccccc1=S.[O-]n1ccccc1=S.[Zn+2] [1-Hydroxypyridine-2-thone zinc salt]						Inhibition of LAL activity % [2]: 0%; Inhibition of LAL activity % [3]: 2% and 6%
CC(C=O)Cc1ccc(C(C)C)cc1 (centres unmarked) [3-(4-Isopropylphenyl)-2-methylpropionaldehyde]	39%	21%	65%	29%		
CCCCCCCCCCCC(=O)NCCCN(C)C [3-Dodecanamidopropyldimethylamine]	79%	87%	87%	62%		
NC(=O)NCCC[C@H](N)C(=O)O [Citrulline]						effect on P. gingivalis LPS 1690 stimulated proinflammatory cytokine production (IL-6, TNF-α, IL-12p70, IL-10, IL-2, IFN-r, IL-1β) [4]: inhibited
[Cu+].[I-] [Copper(I) iodide]	18%	23%	20%	12%		
C=CC[N+](C)(C)CC=C.[Cl-] [Diallyldimethylammonium chloride]	35%	40%	28%	38%		
CCCCCCCCCCCCCCCCCC(=O)NCCN(CC)CC [Diethylaminoethyl stearamide]	66%	77%	58%	62%	97.4%	
CC(C)CCOC(=O)c1ccccc1 [Isopentyl benzoate]	18%	22%	13%			
CCCCC/C=C\C/C=C\CCCCCCCC(=O)OC [Methyl linoleate]	88%	~100%	~100%	53%	36.9%	
CCCCCCCCCCCCCC[n+]1ccc(C)cc1.[Cl-] [Myristyl-γ-picolinium chloride]	~100%	~100%	~100%	~100%	96.2% and 96%	
CCCCCCCCCCCCN(C)C [N,N-Dimethyldodecylamine]	22%	36%	13%	18%		
CCCCCCCCCCCC[n+]1ccccc1.[Cl-] [N-Laurylpyridinium chloride]	60%	66%	59%	56%	96.5%	
CCCCCCCCCCCCCC(=O)NCC(=O)O [N-Myristoylglycine]	76%	~100%	74%	39%	91.4%	
CCCCCCCCCCCCCCCCCC(=O)OCCNC(=O)C[n+]1ccccc1.[Cl-] [Steapyrium chloride]	~100%	~100%	~100%	100%	100%	
CCCCCCCCCCCCCCCCCC(=O)NCCCN(C)C [Stearylamidopropyldimethylamine]	77%	85%	74%	71%	83.8%	
[F][Sn][F] [Tin (II) fluoride]						binding to E. coli LPS (MALDI-TOF) [6]: binds to E. coli LPS; Inhibition of LAL activity % [2]: 60% and 49%; reduction of P. gingivalis LPS activation on the TLR4 reporter system ([7]; 3.2 mM): about 50%; reduction of P. gingivalis LPS activation on the TLR4 reporter system ([7]; […]): about 50%; level of E. coli induction of TLR-4 ([7]; stannous 500 uM or higher, 100 ng/ml E. coli LPS): decreased; expression of the NFKB-SEAP reporter gene by LPS and LTA in THP-1 dual cells [8]: inhibited; level of P. gingivalis induction of TLR-2 [9]: decreased; Inhibition of LAL activity % [3]: 92% and 87%; luciferase production in THP-1 dual cells stimulated by E. coli LPS [10]: inhibited; fluorescence intensity of labeled LPS on HEK-Blue-hTLR4 cells [11]: reduced fluorescence intensity significantly; % of control ([11]; 500 μM): 64.5%; Average fluorescence intensity (FI) ([11]; 500 μM): 662; Displacement % of LPS from binding to BODIPY TR cadaverine ([1]; 0.63 mM): 12.69%; cytokine production stimulated by LPS in human primary monocytes ([12]; 100 ng E. coli LPS or P. gingivalis LPS 1690, 24 hours): inhibited; suppression of LPS on IL-8 production in human primary monocytes ([12]; dose-dependent): reversed
Oc1cc(Cl)ccc1Oc1ccc(Cl)cc1Cl [Triclosan (irgasan)]						Inhibition of LAL activity % [2]: 0%; Inhibition of LAL activity % [3]: 10% and 0%; Average fluorescence intensity (FI) ([11]; 500 μM): 1021; remaining activity at 500 µM ([11]; HEK-Blue hTLR4, read-out: % of control): 99.4%
C=CCCCCCCCCC=O [Undecylenic aldehyde]	22%	29%	15%			
CCCCCC(C=O)=Cc1ccccc1 [alpha-Amylcinnamaldehyde]	15%	17%	13%			
CCCCCCCC/C=C\CCCCCCCC(=O)O [cis-Oleic acid]	31%	54%	9%		61%	
O=C([O-])C(=O)[O-].[K+].[K+] [potassium oxalate]						Inhibition of LAL activity % [2]: 8% and 0%; Inhibition of LAL activity % [3]: 1% and 6%
[F-].[Na+] [sodium fluoride]						Inhibition of LAL activity % [2]: 0%; Inhibition of LAL activity % [3]: 4% and 5%
[Cl][Sn][Cl] [stannous chloride]						Inhibition of LAL activity % [3]: 89% and 65%
O.O.O=C([O-])CC(O)(CC(=O)[O-])C(=O)[O-].O=C([O-])CC(O)(CC(=O)[O-])C(=O)[O-].[Zn+2].[Zn+2].[Zn+2] [zinc citrate, dihydrate]						Inhibition of LAL activity % ([2]; citrate, dihydrate): 104% and 57%; Inhibition of LAL activity % ([3]; citrate, dihydrate): 104% and 82%
Flagellin from B. subtilis: flagellin from B. subtilis						EC50 of flagellin on TLR5 ([13]; at 5 hours): 0.02 ng/mL; EC50 of flagellin on TLR5 ([13]; at 23 hours): 0.014 ng/mL
iron(iii) chloride hexahydrate	~100%	~100%	~100%	100%	58.1%	
